{"source": "patent US20240108598A1", "about": "“Danegaptide for Use in the Treatment or Prevention of a Kidney Disease” (CIANA THERAPEUTICS APS, priority 2021, published 2024)", "key": {"[1]": {"test_system": "primary hPTECs", "test": "qPCR of cell cycle and reno-protective marker mRNA", "format": "cell-based, human", "conditions": "12 h", "experimental": "Primary hPTECs were cultured in low (5 mM) glucose±TGFβ1 (10 ng/mL)±danegaptide (100 nM) for 12 h. […] Danegaptide (100 nM) negated the increase in p16, p21, cyclinD1 (▴▴▴P<0.001; mean±SEM, n=3) and partly reversed the TGFβ1-evoked change in Klotho.\nTo determine if danegaptide can negate hemichannel-mediated regulation of common cell cycle and reno-protective markers, hPTECs were incubated with TGFβ1 (10 ng/mL)±danegaptide (100 nM) for 12 h and expression of candidate gene mRNA assessed through qPCR analysis.\nRNA was extracted using an RNeasy mini kit (QIAGEN) and reverse transcribed (Invitrogen). Real-time PCR (SYBR GreenER, Invitrogen) was performed using a StepOne Plus instrument (Applied Biosystems Inc, Foster City, CA). cDNA expression was obtained by comparing to a standard curve of serially-diluted cDNA. The following primers were used: p16 (forward: […], reverse: […]), p21 (forward: […], reverse: […]), cyclinD1 (forward: […], reverse: […]), Klotho (forward: […], reverse: […]). Melt curve analysis confirmed primer specificity and checked for potential contamination."}, "[2]": {"test_system": "primary hPTECs", "test": "Western blotting of adherens and tight junction proteins", "format": "cell-based, human", "conditions": "48 h", "experimental": "(§1) Primary hPTECs were cultured in low (5 mM) glucose±TGFβ1 (10 ng/mL)±danegaptide (100 nM) for 48 h. Expression of E-cadherin (ECAD), N-cadherin (NCAD) and vimentin (panel A), and Claudin-2 and Zonula Occludens (ZO-1) and b-catenin (panel B) were assessed via western blotting. TGFβ1 reduced E-cadherin, Claudin-2 and ZO-1 expression and increased N-cadherin and vimentin expression (**P<0.01, ***P<0.001; mean±SEM, n=3). Effects were partially or completely reversed by danegaptide (100 nM; ▴P<0.05 and ▴▴▴P<0.001; mean±SEM, n=3). Representative blots for each protein are shown, with expression normalised by re-probing for α-tubulin as a loading control. In panel C, transepithelial electrical resistance (TER) assessed the consequence of altered adherens & tight-junction protein expression on epithelial integrity. HK2 cells were cultured in low (5 mM) glucose on transwell inserts and transepithelial resistance measured.\n(§2) To determine if danegaptide can negate TGFβ1-mediated changes in adherens and tight junction proteins, hPTECs were incubated with TGFβ1 (10 ng/mL)±danegaptide (100 nM) for 48 h and expression of candidate proteins assessed by Western blotting. Preparation of cytosolic protein from HK2 and HPTEC cells, their separation by SDS-gel electrophoresis and transfer onto Immobilon-FI PVDF membranes have been described previously (Price, G. W.; Chadjichristos, C. E.; Kavvadas, P.; Tang, S. C. W.; Yiu, W. H.; Green, C. R.; Potter, J. A.; Siamantouras, E.; Squires, P. E.; Hills, C. E. Blocking Connexin-43 mediated hemichannel activity protects against early tubular injury in experimental chronic kidney disease. Cell Commun. Signal. 2020, 18). Membranes were blocked using Odyssey blocking buffer (LI-COR), then probed overnight with antibodies against E-cadherin (1:1000), N-cadherin (1:1000), claudin-2 (1:500) and ZO-1 (1:1000), Col I (1:1000), Col IV (1:2000), Fibronectin (1:4000), Laminin (1:500), ILK1 (1:500), beta-catenin (1:2000), Vimentin (1:500), MMP3 (1:500). Bands were visualised using an OdysseyFC and semi-quantified using ImageStudio (v5.2, LI-COR). Additionally, transepithelial electrical resistance (TER) was measured as a functional measure of epithelial cell-cell coupling and paracellular permeability."}, "[3]": {"test_system": "primary hPTECs", "test": "Western blotting of extracellular matrix proteins", "format": "cell-based, human", "conditions": "48 h", "experimental": "Primary hPTECs were cultured in low (5 mM) glucose±TGFβ1 (10 ng/mL)±danegaptide (100 nM) for 48 h. In panel A, expression of the ECM proteins collagen I (Col1), collagen IV (Col4), fibronectin (Fibro), and Laminin (panel B) were assessed via western blotting. […] Danegaptide partially reversed the TGFβ1 evoked change in Integrin Linked Kinase 1 (ILK1; ▴▴▴P<0.001) but had negligible effect on Matrix Metalloproteinase 3 (MMP3). All bars correspond mean±SEM, (n=3) and representative blots are shown with expression normalised by re-probing for α-tubulin as a loading control.\nas §2\nTo examine the effect of danegaptide on TGFβ1-evoked changes in expression of ECM proteins, hPTEC cells were cultured in low (5 mM) glucose for 48 h, serum starved overnight and treated with TGFβ1 (10 ng/mL)±danegaptide (100 nM) for 48 h. Expression of the ECM proteins collagen I, collagen IV, fibronectin, Laminin, Integrin Linked Kinase 1, and Matrix Metalloproteinase 3 were assessed via western blotting."}, "[4]": {"test_system": "HK2 cells", "test": "Lactate dehydrogenase (LDH) release assay", "format": "cell-based", "conditions": "48 h", "experimental": "HK2 cells were cultured in low glucose (5 mM) for 48 h, prior to being serum-starved overnight and subsequently treated with TGFβ1 (10 ng/mL)±danegaptide (50 nM-1 μM) for 48 h (FIG. 1A, n=3).\nThe release of lactate dehydrogenase (LDH) into media as a result of plasma membrane damage is commonly used to evaluate cell death or cytotoxicity. HK2 cells were seeded in 96-well plates and cultured in low glucose DMEM/F12 (5 mM) for 48 h, prior to overnight serum-starvation. Cells were then stimulated for 48 h with TGFβ1 (10 ng/ml)±danegaptide (50-1000 nM). The LDH-cytotoxicity assay kit II (Abcam) was used to quantify LDH according to the manufacturer's instructions."}, "[5]": {"test_system": "HK2 cells", "test": "Transepithelial electrical resistance (TER)", "format": "cell-based, human", "conditions": "HK2 cells on transwell inserts", "experimental": "as §1\nTo determine if danegaptide can negate TGFβ1-mediated changes in adherens and tight junction proteins, hPTECs were incubated with TGFβ1 (10 ng/mL)±danegaptide (100 nM) for 48 h and expression of candidate proteins assessed by Western blotting. […] Bands were visualised using an OdysseyFC and semi-quantified using ImageStudio (v5.2, LI-COR). […]"}, "[6]": {"conditions": "TGFβ1 10 ng/mL + danegaptide 100 nM"}}}
{"compound": "NCC(=O)N1C[C@H](NC(=O)c2ccccc2)C[C@H]1C(=O)O", "note": "[danegaptide, (2S,4R)-1-(2-aminoacetyl)-4-benzamidopyrrolidine2-carboxylic acid]", "values": [{"measurement": "Klotho mRNA expression, of control", "setting": "[1]; [6]", "value": "59.9±11.7", "unit": "%"}, {"measurement": "cyclinD1 mRNA expression, of control", "setting": "[1]; [6]", "value": "132.9±15.0", "unit": "%"}, {"measurement": "p16 mRNA expression, of control", "setting": "[1]; [6]", "value": "193±18.5", "unit": "%"}, {"measurement": "p21 mRNA expression, of control", "setting": "[1]; [6]", "value": "142.2±6.2", "unit": "%"}, {"measurement": "Claudin-2 expression, of control", "setting": "[2]; [6]", "value": "74.6±5", "unit": "%"}, {"measurement": "E-cadherin (ECAD) expression, of control", "setting": "[2]; [6]", "value": "89±7.6", "unit": "%"}, {"measurement": "N-cadherin (NCAD) expression, of control", "setting": "[2]; [6]", "value": "161.9±27.4", "unit": "%"}, {"measurement": "ZO-1 expression, of control", "setting": "[2]; [6]", "value": "52.8±5.4", "unit": "%"}, {"measurement": "vimentin expression, of control", "setting": "[2]; [6]", "value": "147.3±8.8", "unit": "%"}, {"measurement": "Beta-catenin expression, of control", "setting": "[2]; TGFβ1+danegaptide 100 nM", "value": "151.6±16.8", "unit": "%"}, {"measurement": "Integrin Linked Kinase 1 (ILK1) expression, compared to control", "setting": "[3]; [6]", "value": "251.8±33", "unit": "%"}, {"measurement": "Matrix Metalloproteinase 3 (MMP3) expression, compared to control", "setting": "[3]; [6]", "value": "147.1±12.2", "unit": "%"}, {"measurement": "collagen I expression, compared to control", "setting": "[3]; [6]", "value": "180.7±27.3", "unit": "%"}, {"measurement": "collagen IV expression, compared to control", "setting": "[3]; [6]", "value": "164.2±6.9", "unit": "%"}, {"measurement": "fibronectin expression, compared to control", "setting": "[3]; [6]", "value": "161.3±4", "unit": "%"}, {"measurement": "laminin expression, compared to control", "setting": "[3]; [6]", "value": "149±20.4", "unit": "%"}, {"measurement": "LDH release compared to control", "setting": "[4]; TGFβ1 10 ng/mL + danegaptide 50 nM", "value": "106.4±11.6", "unit": "%"}, {"measurement": "LDH release compared to control", "setting": "[4]; [6]", "value": "113.9±15.6", "unit": "%"}, {"measurement": "LDH release compared to control", "setting": "[4]; TGFβ1 10 ng/mL + danegaptide 1 μM", "value": "113.2±4.3", "unit": "%"}, {"measurement": "LDH release compared to control", "setting": "[4]; danegaptide alone 50 nM", "value": "104.4±4.3", "unit": "%"}, {"measurement": "LDH release compared to control", "setting": "[4]; danegaptide alone 100 nM", "value": "95.3±4.7", "unit": "%"}, {"measurement": "LDH release compared to control", "setting": "[4]; danegaptide alone 1 μM", "value": "92.6±3.3", "unit": "%"}, {"measurement": "transepithelial resistance", "setting": "[5]; [6]", "value": "36±2.08 Ω·cm2"}]}
{"compound": "TGFβ1: Recombinant hTGFβ1 (Sigma); pro-fibrotic cytokine used to stimulate the cells [reference compound]", "values": [{"measurement": "Klotho mRNA expression, of control", "setting": "[1]; TGFβ1 10 ng/mL alone", "value": "43.3±3.8", "unit": "%"}, {"measurement": "cyclinD1 mRNA expression, of control", "setting": "[1]; TGFβ1 10 ng/mL alone", "value": "253.2±7.7", "unit": "%"}, {"measurement": "p16 mRNA expression, of control", "setting": "[1]; TGFβ1 10 ng/mL alone", "value": "358.8±21.1", "unit": "%"}, {"measurement": "p21 mRNA expression, of control", "setting": "[1]; TGFβ1 10 ng/mL alone", "value": "221.8±12.9", "unit": "%"}, {"measurement": "Claudin-2 expression, of control", "setting": "[2]; TGFβ1 10 ng/mL alone", "value": "44.5±5", "unit": "%"}, {"measurement": "E-cadherin (ECAD) expression, of control", "setting": "[2]; TGFβ1 10 ng/mL alone", "value": "33.3±3.3", "unit": "%"}, {"measurement": "N-cadherin (NCAD) expression, of control", "setting": "[2]; TGFβ1 10 ng/mL alone", "value": "224.4±29.6", "unit": "%"}, {"measurement": "ZO-1 expression, of control", "setting": "[2]; TGFβ1 10 ng/mL alone", "value": "27.8±11.3", "unit": "%"}, {"measurement": "vimentin expression, of control", "setting": "[2]; TGFβ1 10 ng/mL alone", "value": "212.9±13", "unit": "%"}, {"measurement": "Beta-catenin expression, of control", "setting": "[2]; TGFβ1 alone", "value": "149.2±11.2", "unit": "%"}, {"measurement": "Integrin Linked Kinase 1 (ILK1) expression, compared to control", "setting": "[3]; TGFβ1 10 ng/mL alone", "value": "378.9±16.8", "unit": "%"}, {"measurement": "Matrix Metalloproteinase 3 (MMP3) expression, compared to control", "setting": "[3]; TGFβ1 10 ng/mL alone", "value": "185.3±19.6", "unit": "%"}, {"measurement": "collagen I expression, compared to control", "setting": "[3]; TGFβ1 10 ng/mL alone", "value": "334.6±30.14", "unit": "%"}, {"measurement": "collagen IV expression, compared to control", "setting": "[3]; TGFβ1 10 ng/mL alone", "value": "354.5±16.9", "unit": "%"}, {"measurement": "fibronectin expression, compared to control", "setting": "[3]; TGFβ1 10 ng/mL alone", "value": "301.7±50.4", "unit": "%"}, {"measurement": "laminin expression, compared to control", "setting": "[3]; TGFβ1 10 ng/mL alone", "value": "324.8±36.4", "unit": "%"}, {"measurement": "LDH release compared to control", "setting": "[4]; TGFβ1 10 ng/mL alone", "value": "109.3±11.3", "unit": "%"}, {"measurement": "transepithelial resistance", "setting": "[5]; TGFβ1 10 ng/mL alone", "value": "10±1.53 Ω·cm2"}]}
